Data from patent US20210188843A1, “QUINOLINE COMPOUNDS AND THEIR PREPARATION AND USE AS ANTIMALARIAL AGENTS” (The United States of America,as represented by the …, priority 2018, published 2021).
Converted amounts (≈) assume the structure as drawn. Where two headings read alike, the source gives them in different places.

How the values were obtained:
[1] = Solubility pH 7.4; format: physicochemical; settings: aqueous buffer
[2] = PAMPA permeability; format: in vitro ADME
[3] = system: Asexual parasites of P. falciparum strain 3D7; test: In vitro drug activity on asexual parasites (SYBR Green assay); format: cell-based; settings: Plasmodium falciparum, P. falciparum 3D7 asexual stage, 72 h, read-out: Asexual EC50
How it was run: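 3D7 asexual cultures at 0.5% parasitemia and 2% hematocrit were exposed to drug (DMSO <0.5%) for 72 h under standard culture conditions, in duplicate with no-drug and RBC-only controls. After freeze-thaw lysis, SYBR Green I lysis buffer was added for 30 min at room temperature; fluorescence was read at 490 nm excitation/520 nm emission.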

[4] = Microsomal stability (rat); format: in vitro ADME; settings: rat microsomes
[5] = Table 1, read-out: Microsomal Stability (rat) T1/2
[6] = Table 3, read-out: Microsomal Stability (rat) T1/2

Row | SMILES | solubility ([1]; Table 1) | Papp ([2]; Table 1) | EC50 ([3]; Table 1) | half-life [4, 5] | solubility ([1]; Table 3) | Papp ([2]; Table 3) | EC50 ([3]; Table 3) | half-life [4, 6]
1 | Cc1ccc(C#N)cc1-n1c(=N)n(C)c2cnc3ccc(-c4cccc(C#N)c4)cc3c21 [Compound 25, 3-(8-(3-cyanophenyl)-2-imino-3-methyl-2,3-dihydro-1H-imidazo[4,5-c]quinolin-1-yl)-4-methylbenzonitrile] | > 41 µg/mL | 1430 ×10⁻⁶ cm/s | 118 nM | > 30 min | – | – | – | –
2 | Cc1ncncc1-n1c(=N)n(C)c2cnc3ccc(-c4ccc(F)cc4)cc3c21 | – | – | – | – | 6.2 µg/mL (≈ 16.1 µM) | 1180 ×10⁻⁶ cm/s | 538 nM | > 30 min
3 | Cc1ccc(C#N)cc1-n1c(=N)n(C)c2cnc3ccc(-c4ccc5[nH]ncc5c4)cc3c21 [Compound 107, 3-(2-imino-8-(1H-indazol-5-yl)-3-methyl-2,3-dihydro-1H-imidazo[4,5-c]quinolin-1-yl)-4-methylbenzonitrile] | > 42 µg/mL | 22.6 ×10⁻⁶ cm/s | 12.9 nM | 22.9 min | – | – | – | –
4 | COc1ccc(C#N)cc1-n1c(=N)n(C)c2cnc3ccc(-c4ccc(Cl)cc4)cc3c21 [Compound 53, 3-(8-(4-chlorophenyl)-2-imino-3-methyl-2,3-dihydro-1H-imidazo[4,5-c]quinolin-1-yl)-4-methoxybenzonitrile] | 12.2 µg/mL (≈ 27.7 µM) | 850 ×10⁻⁶ cm/s | 120 nM | > 30 min | – | – | – | –
5 | Cn1c(=N)n(-c2cccc(Cl)c2)c2c3cc(-c4ccc(Cl)cc4)ccc3ncc21 [Compound 28, 1-(3-chlorophenyl)-8-(4-chlorophenyl)-3-methyl-1,3-dihydro-2H-imidazo[4,5-c]quinolin-2-imine] | < 1 µg/mL | 226 ×10⁻⁶ cm/s | 186 nM | > 30 min | – | – | – | –
6 | Cn1c(=N)n(-c2ccccc2C#N)c2c3cc(-c4ccc(Cl)cc4)ccc3ncc21 [Compound 68, 2-(8-(4-chlorophenyl)-2-imino-3-methyl-2,3-dihydro-1H-imidazo[4,5-c]quinolin-1-yl)benzonitrile] | > 41 µg/mL | 142 ×10⁻⁶ cm/s | 1450 nM | > 30 min | – | – | – | –
7 | Cn1c(=N)n(-c2cccc(F)c2)c2c3cc(-c4ccc(Cl)cc4)ccc3ncc21 [Compound 78, 8-(4-chlorophenyl)-1-(3-fluorophenyl)-3-methyl-1,3-dihydro-2H-imidazo[4,5-c]quinolin-2-imine] | < 1 µg/mL | 629 ×10⁻⁶ cm/s | 309 nM | > 30 min | – | – | – | –
8 | Cc1ccc(C#N)cc1-n1/c(=N/S(N)(=O)=O)n(C)c2cnc3ccc(-c4cccc(F)c4)cc3c21 [Compound 116] | < 1 µg/mL | 1070 ×10⁻⁶ cm/s | 27.8 nM | 17.9 min | – | – | – | –
9 | Cc1ccc(-c2ccc3ncc4c(c3c2)n(-c2cncnc2C)c(=N)n4C)cc1 | – | – | – | – | > 38 µg/mL | 1240 ×10⁻⁶ cm/s | 1150 nM | > 30 min
10 | CC(=O)N1CCN(c2nc(C)c(-n3c(=N)n(C)c4cnc5ccc(-c6ccc(Cl)cc6)cc5c43)cc2C#N)CC1 [Compound 130, 2-(4-acetylpiperazin-1-yl)-5-(8-(4-chlorophenyl)-2-imino-3-methyl-2,3-dihydro-1H-imidazo[4,5-c]quinolin-1-yl)-6-methylnicotinonitrile] | > 54 µg/mL | 112 ×10⁻⁶ cm/s | 22.2 nM | 20.2 min | – | – | – | –
11 | Cn1c(=N)n(-c2ccc(C(=O)NC3CC3)cc2)c2c3cc(-c4ccc(Cl)cc4)ccc3ncc21 [Compound 65, 4-(8-(4-chlorophenyl)-2-imino-3-methyl-2,3-dihydro-1H-imidazo[4,5-c]quinolin-1-yl)-N-cyclopropylbenzamide] | 6.1 µg/mL (≈ 13 µM) | 10.2 ×10⁻⁶ cm/s | 580 nM | > 30 min | – | – | – | –
12 | Cn1c(=N)n(-c2cncnc2)c2c3cc(-c4ccc(F)cc4)ccc3ncc21 | – | – | – | – | 2 µg/mL (≈ 5.4 µM) | 26.2 ×10⁻⁶ cm/s | 194 nM | > 30 min
13 | Cc1ccc(C#N)cc1-n1c(=N)n(C)c2cnc3ccc(-c4ccc(F)cc4)cc3c21 [Compound 12, 3-(8-(4-fluorophenyl)-2-imino-3-methyl-2,3-dihydro-1H-imidazo[4,5-c]quinolin-1-yl)-4-methylbenzonitrile] | 3.9 µg/mL (≈ 9.57 µM) | 1030 ×10⁻⁶ cm/s | 64.4 nM | > 30 min | – | – | – | –
14 | Cc1nc(N2CCN(C)CC2)c(C#N)cc1-n1c(=N)n(C)c2cnc3ccc(-c4cccc(F)c4)cc3c21 [Compound 143, 5-(8-(3-fluorophenyl)-2-imino-3-methyl-2,3-dihydro-1H-imidazo[4,5-c]quinolin-1-yl)-6-methyl-2-(4-methylpiperazin-1-yl)nicotinonitrile] | > 50 µg/mL | 776 ×10⁻⁶ cm/s | 374 nM | > 30 min | – | – | – | –
15 | Cc1ccc(C#N)cc1-n1/c(=N/S(N)(=O)=O)n(C)c2cnc3ccc(-c4ccc(Cl)cc4)cc3c21 [Compound 100, (8-(4-chlorophenyl)-1-(5-cyano-2-methylphenyl)-3-methyl-1,3-dihydro-2H-imidazo[4,5-c]quinolin-2-ylidene)sulfonamide] | < 1 µg/mL | 236 ×10⁻⁶ cm/s | 12.9 nM | > 30 min | – | – | – | –
16 | Cc1ccc(C#N)cc1-n1c(=N)n(C)c2cnc3ccc(-c4ccnn4C)cc3c21 [Compound 5, 3-(2-imino-3-methyl-8-(1-methyl-1H-pyrazol-5-yl)-2,3-dihydro-1H-imidazo[4,5-c]quinolin-1-yl)-4-methylbenzonitrile] | 42.5 µg/mL (≈ 108 µM) | 219 ×10⁻⁶ cm/s | 154 nM | > 30 min | – | – | – | –
17 | Cc1cccc(-c2ccc3ncc4c(c3c2)n(-c2cc(C#N)ccc2C)c(=N)n4C)c1 [Compound 36, 3-(2-imino-3-methyl-8-(m-tolyl)-2,3-dihydro-1H-imidazo[4,5-c]quinolin-1-yl)-4-methylbenzonitrile] | > 40 µg/mL | 1150 ×10⁻⁶ cm/s | 158 nM | 27 min | – | – | – | –
18 | COC(=O)/N=c1\n(C)c2cnc3ccc(-c4ccc(C)cc4)cc3c2n1-c1cc(C#N)c(N2CCN(C)CC2)cc1C [Compound 147, Methyl (E)-(1-(5-cyano-2-methyl-4-(4-methylpiperazin-1-yl)phenyl)-3-methyl-8-(p-tolyl)-1,3-dihydro-2H-imidazo[4,5-c]quinolin-2-ylidene)carbamate] | 4.3 µg/mL (≈ 7.68 µM) | 656 ×10⁻⁶ cm/s | 28.4 nM | 24.4 min | – | – | – | –
19 | Cc1ccc(Cl)cc1-n1c(=N)n(C)c2cnc3ccc(-c4ccc(Cl)cc4)cc3c21 [Compound 29, 1-(5-chloro-2-methylphenyl)-8-(4-chlorophenyl)-3-methyl-1,3-dihydro-2H-imdazo[4,5-c]quinolin-2-imine] | < 1 µg/mL | 1680 ×10⁻⁶ cm/s | 136 nM | > 30 min | – | – | – | –
20 | Cn1c(=N)n(-c2cnc(N3CCNCC3)c(C#N)c2)c2c3cc(-c4ccc(Cl)cc4)ccc3ncc21 [Compound 48, 5-(8-(4-chlorophenyl)-2-imino-3-methyl-2,3-dihydro-1H-imidazo[4,5-c]quinolin-1-yl)-2-(piperazin-1-yl)nicotinonitrile] | < 1 µg/mL | 30.5 ×10⁻⁶ cm/s | 125 nM | > 30 min | – | – | – | –
21 | Cc1ncncc1-n1c(=N)n(C)c2cnc3ccc(-c4ccc(Cl)cc4)cc3c21 | – | – | – | – | 24.7 µg/mL (≈ 61.6 µM) | 1290 ×10⁻⁶ cm/s | 721 nM | > 30 min
22 | Cc1cc(N2CCOCC2)c(C#N)cc1-n1c(=N)n(C)c2cnc3ccc(-c4ccc(Cl)cc4)cc3c21 [Compound 23, 5-(8-(4-chlorophenyl)-2-imino-3-methyl-2,3-dihydro-1H-imidazo[4,5-c]quinolin-1-yl)-4-methyl-2-morpholinobenzonitrile] | < 1 µg/mL | 340 ×10⁻⁶ cm/s | 63.9 nM | > 30 min | – | – | – | –
23 | Cc1ccc(C#N)cc1-n1c(=N)n(C)c2cnc3ccc(-c4ccc(OCCCN(C)C)nc4)cc3c21 [Compound 106, 3-(8-(6-(3-(dimethylamino)propoxy)pyridin-3-yl)-2-imino-3-methyl-2,3-dihydro-1H-imidazo[4,5-c]quinolin-1-yl)-4-methylbenzonitrile] | > 49 µg/mL | 1.2 ×10⁻⁶ cm/s | 140 nM | > 30 min | – | – | – | –
24 | Cc1ccc(C#N)cc1-n1c(=N)n(C)c2cnc3ccc(-c4ccccc4)cc3c21 [Compound 35, 3-(2-imino-3-methyl-8-phenyl-2,3-dihydro-1H-imidazo[4,5-c]quinolin-1-yl)-4-methylbenzonitrile] | > 39 µg/mL | 716 ×10⁻⁶ cm/s | 34 nM | > 30 min | – | – | – | –
